Results: the NIST ThermoML archive (doi:10.1016/j.jct.2016.07.021)
Numbers after ± are expanded uncertainties.

Assay: activity coefficient (dimensionless); of the first substance listed, at infinite dilution; xn = mol fraction of the nth substance listed
Details: 101.33 kPa, Liquid, Chromatography, x1 = 0

Compound	activity coefficient (313.15 K)	activity coefficient (323.15 K)	activity coefficient (333.15 K)	activity coefficient (343.15 K)	activity coefficient (353.15 K)
Cc1ccccc1C [1,2-dimethylbenzene] + CCCCCCn1cc[n+](C)c1C.O=S(=O)([N-]S(=O)(=O)C(F)(F)F)C(F)(F)F	1.17 ± 0.12	1.19 ± 0.12	1.21 ± 0.12	1.22 ± 0.13	1.24 ± 0.13
C1=CCCCC1 [cyclohexene] + CCCCCCn1cc[n+](C)c1C.O=S(=O)([N-]S(=O)(=O)C(F)(F)F)C(F)(F)F	3.36 ± 0.35	3.29 ± 0.35	3.19 ± 0.34	3.06 ± 0.32	2.93 ± 0.31
CCCCCCC [heptane] + CCCCCCn1cc[n+](C)c1C.O=S(=O)([N-]S(=O)(=O)C(F)(F)F)C(F)(F)F	10.2 ± 1.1	9.79 ± 1	9.47 ± 1	9.2 ± 0.97	8.83 ± 0.93
Cc1ccccc1 [toluene] + CCCCCCn1cc[n+](C)c1C.O=S(=O)([N-]S(=O)(=O)C(F)(F)F)C(F)(F)F	0.96 ± 0.1	0.99 ± 0.1	1.01 ± 0.1	1.03 ± 0.1	1.05 ± 0.11
CC1CCCCC1 [methylcyclohexane] + CCCCCCn1cc[n+](C)c1C.O=S(=O)([N-]S(=O)(=O)C(F)(F)F)C(F)(F)F	6.48 ± 0.68	6.26 ± 0.66	6.06 ± 0.64	5.81 ± 0.61	5.62 ± 0.59
CCCCCCCC [octane] + CCCCCCn1cc[n+](C)c1C.O=S(=O)([N-]S(=O)(=O)C(F)(F)F)C(F)(F)F	12.8 ± 1.4	11.7 ± 1.2	10.6 ± 1.1	9.82 ± 1	9.16 ± 0.96
ClCCl [dichloromethane] + CCCCCCn1cc[n+](C)c1C.O=S(=O)([N-]S(=O)(=O)C(F)(F)F)C(F)(F)F	0.74 ± 0.08	0.73 ± 0.08	0.72 ± 0.08	0.71 ± 0.07	0.7 ± 0.07
CCOC(C)=O [ethyl acetate] + CCCCCCn1cc[n+](C)c1C.O=S(=O)([N-]S(=O)(=O)C(F)(F)F)C(F)(F)F	0.83 ± 0.09	0.86 ± 0.09	0.88 ± 0.09	0.91 ± 0.09	0.93 ± 0.09
CCCCC [pentane] + CCCCCCn1cc[n+](C)c1C.O=S(=O)([N-]S(=O)(=O)C(F)(F)F)C(F)(F)F	5.64 ± 0.59	5.55 ± 0.58	5.45 ± 0.57	5.33 ± 0.56	5.21 ± 0.55
Cc1ccc(C)cc1 [1,4-dimethylbenzene] + CCCCCCn1cc[n+](C)c1C.O=S(=O)([N-]S(=O)(=O)C(F)(F)F)C(F)(F)F	1.39 ± 0.14	1.42 ± 0.15	1.46 ± 0.15	1.5 ± 0.16	1.55 ± 0.16
Cc1cccc(C)c1 [1,3-dimethylbenzene] + CCCCCCn1cc[n+](C)c1C.O=S(=O)([N-]S(=O)(=O)C(F)(F)F)C(F)(F)F	1.34 ± 0.14	1.38 ± 0.14	1.41 ± 0.15	1.44 ± 0.15	1.47 ± 0.15
C1CCOC1 [tetrahydrofuran] + CCCCCCn1cc[n+](C)c1C.O=S(=O)([N-]S(=O)(=O)C(F)(F)F)C(F)(F)F	0.5 ± 0.06	0.51 ± 0.06	0.53 ± 0.06	0.55 ± 0.06	0.58 ± 0.06
CCCCCCCCC [nonane] + CCCCCCn1cc[n+](C)c1C.O=S(=O)([N-]S(=O)(=O)C(F)(F)F)C(F)(F)F	21.5 ± 2.3	19.8 ± 2.1	18.1 ± 1.9	16.6 ± 1.7	15.1 ± 1.6
CCCCCCCCCC [decane] + CCCCCCn1cc[n+](C)c1C.O=S(=O)([N-]S(=O)(=O)C(F)(F)F)C(F)(F)F	26.8 ± 2.8	25 ± 2.6	23.3 ± 2.5	21.6 ± 2.3	20.1 ± 2.1
C1CCCCC1 [cyclohexane] + CCCCCCn1cc[n+](C)c1C.O=S(=O)([N-]S(=O)(=O)C(F)(F)F)C(F)(F)F	5.33 ± 0.56	5.14 ± 0.54	4.99 ± 0.52	4.88 ± 0.51	4.74 ± 0.5
CC(C)=O [acetone] + CCCCCCn1cc[n+](C)c1C.O=S(=O)([N-]S(=O)(=O)C(F)(F)F)C(F)(F)F	0.4 ± 0.05	0.42 ± 0.05	0.43 ± 0.05	0.45 ± 0.05	0.46 ± 0.05
ClC(Cl)(Cl)Cl [tetrachloromethane] + CCCCCCn1cc[n+](C)c1C.O=S(=O)([N-]S(=O)(=O)C(F)(F)F)C(F)(F)F	2.31 ± 0.24	2.26 ± 0.24	2.19 ± 0.23	2.15 ± 0.23	2.09 ± 0.22
CCc1ccccc1 [ethylbenzene] + CCCCCCn1cc[n+](C)c1C.O=S(=O)([N-]S(=O)(=O)C(F)(F)F)C(F)(F)F	1.34 ± 0.14	1.36 ± 0.14	1.38 ± 0.14	1.4 ± 0.14	1.42 ± 0.15
CC#N [acetonitrile] + CCCCCCn1cc[n+](C)c1C.O=S(=O)([N-]S(=O)(=O)C(F)(F)F)C(F)(F)F	0.45 ± 0.05	0.46 ± 0.05	0.47 ± 0.05	0.48 ± 0.05	0.48 ± 0.05
CCCCCC [hexane] + CCCCCCn1cc[n+](C)c1C.O=S(=O)([N-]S(=O)(=O)C(F)(F)F)C(F)(F)F	7.6 ± 0.8	7.41 ± 0.78	7.16 ± 0.75	6.96 ± 0.73	6.78 ± 0.71
ClC(Cl)Cl [trichloromethane] + CCCCCCn1cc[n+](C)c1C.O=S(=O)([N-]S(=O)(=O)C(F)(F)F)C(F)(F)F	0.77 ± 0.08	0.78 ± 0.08	0.79 ± 0.08	0.81 ± 0.08	0.82 ± 0.08
c1ccccc1 [benzene] + CCCCCCn1cc[n+](C)c1C.O=S(=O)([N-]S(=O)(=O)C(F)(F)F)C(F)(F)F	0.72 ± 0.08	0.72 ± 0.08	0.74 ± 0.08	0.75 ± 0.08	0.76 ± 0.08
